US8507683B2, “Compounds for the treatment of hepatitis C” (Bristol-Myers Squibb Company, priority 2010, dated 2013)

What was measured:
[1] = tested on: genotype 1b HCV replicon in Huh-7 cells; assay: HCV replicon luciferase assay, genotype 1b; assay type: cell-based; conditions: Hepatitis C virus, 1b genotype replicon
Experimental: (§1) Cell Lines. The cell lines used to evaluate compounds consist of a human hepatocyte derived cell line (Huh-7) that constitutively expresses a genotype 1a or 1b HCV replicon containing a Renilla luciferase reporter gene. These cells were maintained in Dulbecco's modified Eagle medium (DMEM) containing 10% FBS, 100 U/mL penicillin/streptomycin and 1.0 mg/mL G418.
(§2) HCV Replicon Luciferase Assay. To evaluate compound efficacy, HCV replicon cells were seeded in 96-well plates in DMEM containing 10% FBS at a cell density of 10^4/well. Following incubation at 37° C. overnight, compounds serially diluted in DMSO were added to the cell plates. Alternatively, titrated compounds were transferred to sterile 384-well tissue-culture treated plates and the plates seeded with 50 μL of cells at a density of 2.4×10^3 cells/well in DMEM containing 4% FCS (final DMSO concentration at 0.5%). After 3 days incubation at 37° C., cells were analyzed for Renilla Luciferase activity using the EnduRen substrate (Promega cat #E6485) according to the manufacturer's directions. Briefly, the EnduRen substrate was diluted in DMEM and then added to the plates to a final concentration of 7.5 μM. The plates were incubated for at least 1 h at 37° C. then read on a TopCount NXT Microplate Scintillation and Luminescence Counter (Packard) or Viewlux Imager (PerkinElmer) using a luminescence program. The 50% effective concentration (EC50) was calculated using the exponential form of the median effect equation where EC50=100−[(δFinh/δFcon)×100].

[2] = molecular target: HCV NS5B RdRp genotype 1b (Hepatitis C virus genotype 1b (isolate Con1) (HCV), UniProt Q9WMX2); assay: HCV NS5B RdRp enzyme assay; assay type: biochemical
Experimental: HCV NS5B RdRp Cloning, Expression, and Purification. The cDNA encoding the NS5B protein of HCV, genotype 1b, was cloned into the pET21a expression vector. The protein was expressed with an 18 amino acid C-terminal truncation to enhance the solubility. The E. coli competent cell line BL21(DE3) was used for expression of the protein. Cultures were grown at 37° C. for ˜4 hours until the cultures reached an optical density of 2.0 at 600 nm. The cultures were cooled to 20° C. and induced with 1 mM IPTG. Fresh ampicillin was added to a final concentration of 50 μg/mL and the cells were grown overnight at 20° C.
Cell pellets (3 L) were lysed for purification to yield 15-24 mgs of purified NS5B. The lysis buffer consisted of 20 mM Tris-HCl, pH 7.4, 500 mM NaCl, 0.5% triton X-100, 1 mM DTT, 1 mM EDTA, 20% glycerol, 0.5 mg/ml lysozyme, 10 mM MgCl2, 15 ug/ml deoxyribonuclease I, and Complete TM protease inhibitor tablets (Roche). After addition of the lysis buffer, frozen cell pellets were resuspended using a tissue homogenizer. To reduce the viscosity of the sample, aliquots of the lysate were sonicated on ice using a microtip attached to a Branson sonicator. The sonicated lysate was centrifuged at 100,000×g for 30 minutes at 4° C. and filtered through a 0.2 μm filter unit (Corning).
The protein was purified using two sequential chromatography steps: Heparin sepharose CL-6B and polyU sepharose 4B. The chromatography buffers were identical to the lysis buffer but contained no lysozyme, deoxyribonuclease I, MgCl2 or protease inhibitor and the NaCl concentration of the buffer was adjusted according to the requirements for charging the protein onto the column. Each column was eluted with a NaCl gradient which varied in length from 5-50 column volumes depending on the column type. After the final chromatography step, the resulting purity of the enzyme is >90% based on SDS-PAGE analysis. The enzyme was aliquoted and stored at −80° C.
Standard HCV NS5B RdRp Enzyme Assay. HCV RdRp genotype 1b assays were run in a final volume of 60 μl in 96 well plates (Costar 3912) . The assay buffer is composed of 20 mM Hepes, pH 7.5, 2.5 mM KCl, 2.5 mM MgCl2, 1 mM DTT, 1.6 U RNAse inhibitor (Promega N2515), 0.1 mg/ml BSA (Promega R3961), and 2% glycerol. All compounds were serially diluted (3-fold) in DMSO and diluted further in water such that the final concentration of DMSO in the assay was 2%. HCV RdRp genotype 1b enzyme was used at a final concentration of 28 nM. A polyA template was used at 6 nM, and a biotinylated oligo-dT12 primer was used at 180 nM final concentration. Template was obtained commercially (Amersham 27-4110). Biotinylated primer was prepared by Sigma Genosys. ^3H-UTP was used at 0.6 μCi (0.29 μM total UTP). Reactions were initiated by the addition of enzyme, incubated at 30° C. for 60 min, and stopped by adding 25 μL of 50 mM EDTA containing SPA beads (4 μg/μL, Amersham RPNQ 0007). Plates were read on a Packard Top Count NXT after >1 hr incubation at room temperature.
Modified HCV NS5B RdRp Enzyme Assay. An on-bead solid phase homogeneous assay was also used to assess NS5B inhibitors (WangY-K, Rigat K, Roberts S, and Gao M (2006) Anal Biochem, 359: 106-111). The assay is a modification of the standard assay described above and was used in a 96-well or a 384-well format. […]

[3] = tested on: genotype 1a HCV replicon in Huh-7 cells; assay: HCV replicon luciferase assay, genotype 1a; assay type: cell-based; conditions: Hepatitis C virus, 1a genotype used for replicon data
Experimental: as §1
as §2, with “The 50% effective concentration (EC50) was calculated using the exponential form of the median effect equation where EC50=100−[(δFinh/δFcon)×100].” left out

HCV = conditions: cited from earlier work

Sequence of HCV NS5B RdRp genotype 1b (Q9WMX2 2420-2992): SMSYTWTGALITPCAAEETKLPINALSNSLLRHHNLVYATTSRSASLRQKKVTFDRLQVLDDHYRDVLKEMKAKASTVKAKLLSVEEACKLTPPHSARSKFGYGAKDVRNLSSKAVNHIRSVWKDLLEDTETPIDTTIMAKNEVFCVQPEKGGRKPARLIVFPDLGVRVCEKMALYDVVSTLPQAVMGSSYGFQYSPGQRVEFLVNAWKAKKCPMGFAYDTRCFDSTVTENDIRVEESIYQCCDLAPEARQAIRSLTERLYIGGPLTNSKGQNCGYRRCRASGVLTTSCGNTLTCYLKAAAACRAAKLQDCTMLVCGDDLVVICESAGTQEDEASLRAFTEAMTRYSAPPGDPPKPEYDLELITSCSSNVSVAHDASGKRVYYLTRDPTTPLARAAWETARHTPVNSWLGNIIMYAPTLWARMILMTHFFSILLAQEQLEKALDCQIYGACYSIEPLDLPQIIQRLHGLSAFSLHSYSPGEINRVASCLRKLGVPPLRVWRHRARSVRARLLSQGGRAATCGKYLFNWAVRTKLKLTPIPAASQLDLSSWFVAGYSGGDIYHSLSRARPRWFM

Structure (SMILES) | EC50 [1] [nM] | IC50 [2] [nM] | EC50 [3] [nM] | hepatic toxicity (HCV; extended dosing of the combination regimens with interferon and ribavirin) | HCV RNA levels in patients (HCV; patients, single agent)
CNC(=O)c1c(-c2ccc(F)cc2)oc2ccc(-c3cc(C(=O)NC4(c5ccccc5)COC4)ccc3C)c(F)c12 | 4 | 57 | – | – | –
CNC(=O)c1c(-c2ccc(F)cc2)oc2ccc(-c3cc(C(=O)NC4(c5ccccn5)COC4)c(OC)cc3C)c(F)c12 | 8 | 17 | – | – | –
CNC(=O)c1c(-c2ccc(F)cc2)oc2ccc(-c3cc(C(=O)NC4(c5ncccn5)COC4)c(OC)cc3C)c(F)c12 [4-fluoro-2-(4-fluorophenyl)-5-(4-methoxy-2-methyl-5-(3-(pyrimidin-2-yl)oxetan-3-ylcarbamoyl)phenyl)-N-methylbenzofuran-3-carboxamide] | 12 | 22 | – | – | –
CNC(=O)c1c(-c2ccc(F)cc2)oc2ccc(-c3cc(C(=O)NC4(c5ccccn5)COC4)ccc3C)c(F)c12 [4-fluoro-2-(4-fluorophenyl)-N-methyl-5-(2-methyl-5-(3-(pyridin-2-yl)oxetan-3-ylcarbamoyl)phenyl)benzofuran-3-carboxamide] | – | 24 | 24 | – | –
CNC(=O)c1c(-c2ccc(F)cc2)oc2ccc(-c3cc(C(=O)NC4(c5ncccn5)COC4)ccc3C)c(F)c12 [4-fluoro-2-(4-fluorophenyl)-N-methyl-5-(2-methyl-5-(3-(pyrimidin-2-yl)oxetan-3-ylcarbamoyl)phenyl)benzofuran-3-carboxamide] | 15 | 10 | – | – | –
CNC(=O)c1c(-c2ccc(F)cc2)oc2ccc(-c3cc(C(=O)NC4(c5ccccn5)COC4)cc(F)c3C)c(F)c12 [4-fluoro-5-(3-fluoro-2-methyl-5-(3-(pyridin-2-yl)oxetan-3-ylcarbamoyl)phenyl)-2-(4-fluorophenyl)-N-methylbenzofuran-3-carboxamide] | 6 | 16 | – | – | –
CNC(=O)c1c(-c2ccc(F)cc2)oc2ccc(-c3cc(C(=O)NC4(c5ncccn5)COC4)cc(F)c3C)c(F)c12 [4-fluoro-5-(3-fluoro-2-methyl-5-(3-(pyrimidin-2-yl)oxetan-3-ylcarbamoyl)phenyl)-2-(4-fluorophenyl)-N-methylbenzofuran-3-carboxamide] | 12 | 6 | – | – | –
CNC(=O)c1c(-c2ccc(F)cc2)oc2cc(N(CCO)S(C)(=O)=O)c(C3CC3)cc12 [HCV-796] | – | – | – | hepatic toxicity observed | showed an ability to reduce HCV RNA levels in patients
